Results: US9693556B2, “Herbicidal pyridazinone derivatives” (SYNGENTA LIMITED, priority 2011, dated 2017)

Legend:
Format in all cases: in vivo
[1] = test system: Amaranthus retoflexus (AMARE); assay: Pre-emergence herbicidal glasshouse test on Amaranthus retoflexus; settings: pre-emergence; 1000 g/h; evaluated after 13 days
Description: (§1) Seeds of a variety of test species are sown in standard soil in pots (Alopecurus myosuroides (ALOMY), Setaria faberi (SETFA), Echinochloa crus-galli (ECHCG), Solanum nigrum (SOLNI), Amaranthus retoflexus (AMARE), Ipomoea hederacea (IPOHE)). After cultivation for one day (pre-emergence) or after 8 days cultivation (post-emergence) under controlled conditions in a glasshouse (at 24/16° C., day/night; 14 hours light; 65% humidity), the plants are sprayed with an aqueous spray solution derived from the formulation of the technical active ingredient in acetone/water (50:50) solution containing 0.5% Tween 20 (polyoxyethelyene sorbitan monolaurate, CAS RN 9005-64-5). Compounds are applied at 1000 g/h. The test plants are then grown in a glasshouse under controlled conditions in a glasshouse (at 24/16° C., day/night; 14 hours light; 65% humidity) and watered twice daily. After 13 days for pre and post-emergence, the test is evaluated for the percentage herbicidal damage caused to the plant. The biological activities are shown in the following table on a five point scale (5=80-100% damage; 4=60-79% damage; 3=40-59% damage; 2=20-39% damage; 1=0-19% damage).

Setaria faberi (SETFA) [2] = assay: Post-emergence herbicidal glasshouse test on Setaria faberi; settings: post-emergence; 1000 g/h; evaluated after 13 days
Description: as §1

Solanum nigrum (SOLNI) [3] = assay: Post-emergence herbicidal glasshouse test on Solanum nigrum; settings: post-emergence; 1000 g/h; evaluated after 13 days
Description: as §1

Solanum nigrum (SOLNI) [4] = assay: Pre-emergence herbicidal glasshouse test on Solanum nigrum; settings: pre-emergence; 1000 g/h; evaluated after 13 days
Description: as §1

[5] = test system: Ipomoea hederacea (IPOHE); assay: Pre-emergence herbicidal glasshouse test on Ipomoea hederacea; settings: pre-emergence; 1000 g/h; evaluated after 13 days
Description: as §1

[6] = test system: Echinochloa crus-galli (ECHCG); assay: Post-emergence herbicidal glasshouse test on Echinochloa crus-galli; settings: post-emergence; 1000 g/h; evaluated after 13 days
Description: as §1

[7] = test system: Alopecurus myosuroides (ALOMY); assay: Pre-emergence herbicidal glasshouse test on Alopecurus myosuroides; settings: pre-emergence; 1000 g/h; evaluated after 13 days
Description: as §1

[8] = test system: Alopecurus myosuroides (ALOMY); assay: Post-emergence herbicidal glasshouse test on Alopecurus myosuroides; settings: post-emergence; 1000 g/h; evaluated after 13 days
Description: as §1

[9] = test system: Echinochloa crus-galli (ECHCG); assay: Pre-emergence herbicidal glasshouse test on Echinochloa crus-galli; settings: pre-emergence; 1000 g/h; evaluated after 13 days
Description: as §1

[10] = test system: Amaranthus retoflexus (AMARE); assay: Post-emergence herbicidal glasshouse test on Amaranthus retoflexus; settings: post-emergence; 1000 g/h; evaluated after 13 days
Description: as §1

Setaria faberi (SETFA) [11] = assay: Pre-emergence herbicidal glasshouse test on Setaria faberi; settings: pre-emergence; 1000 g/h; evaluated after 13 days
Description: as §1

[12] = test system: Ipomoea hederacea (IPOHE); assay: Post-emergence herbicidal glasshouse test on Ipomoea hederacea; settings: post-emergence; 1000 g/h; evaluated after 13 days
Description: as §1

| SMILES | PRE Application AMARE herbicidal damage (five point scale) [1] | POST Application SETFA herbicidal damage (five point scale) (Setaria faberi (SETFA) [2]) | POST Application SOLNI herbicidal damage (five point scale) (Solanum nigrum (SOLNI) [3]) | PRE Application SOLNI herbicidal damage (five point scale) (Solanum nigrum (SOLNI) [4]) | PRE Application IPOHE herbicidal damage (five point scale) [5] | POST Application ECHCG herbicidal damage (five point scale) [6] | PRE Application ALOMY herbicidal damage (five point scale) [7] | POST Application ALOMY herbicidal damage (five point scale) [8] | PRE Application ECHCG herbicidal damage (five point scale) [9] | POST Application AMARE herbicidal damage (five point scale) [10] | PRE Application SETFA herbicidal damage (five point scale) (Setaria faberi (SETFA) [11]) | POST Application IPOHE herbicidal damage (five point scale) [12] |
| --- | --- | --- | --- | --- | --- | --- | --- | --- | --- | --- | --- | --- |
| Cc1ccc(F)cc1-c1cnn(C)c(=O)c1O [Compound 1.094] | 1 (1=0-19% damage) | 1 (1=0-19% damage) | 2 (2=20-39% damage) | 1 (1=0-19% damage) | 1 (1=0-19% damage) | 1 (1=0-19% damage) | 1 (1=0-19% damage) | 1 (1=0-19% damage) | 1 (1=0-19% damage) | 1 (1=0-19% damage) | 1 (1=0-19% damage) | 1 (1=0-19% damage) |
| Cn1ncc(-c2ccc(C(F)(F)F)cc2S(C)(=O)=O)c(OC(=O)c2ccccc2)c1=O [Compound 3.002] | 5 (5=80-100% damage) | 5 (5=80-100% damage) | 5 (5=80-100% damage) | 5 (5=80-100% damage) | 5 (5=80-100% damage) | 5 (5=80-100% damage) | 5 (5=80-100% damage) | 5 (5=80-100% damage) | 5 (5=80-100% damage) | 5 (5=80-100% damage) | 5 (5=80-100% damage) | 5 (5=80-100% damage) |
| CS(=O)(=O)c1ccccc1-c1cnn(CC(F)F)c(=O)c1O [Compound 2.012] | 5 (5=80-100% damage) | 5 (5=80-100% damage) | 5 (5=80-100% damage) | 5 (5=80-100% damage) | 5 (5=80-100% damage) | 5 (5=80-100% damage) | 5 (5=80-100% damage) | 5 (5=80-100% damage) | 5 (5=80-100% damage) | 5 (5=80-100% damage) | 5 (5=80-100% damage) | 5 (5=80-100% damage) |
| Cn1ncc(-c2ccccc2C(F)(F)F)c(O)c1=O [Compound 1.116] | 5 (5=80-100% damage) | 2 (2=20-39% damage) | 5 (5=80-100% damage) | 3 (3=40-59% damage) | 1 (1=0-19% damage) | 2 (2=20-39% damage) | 2 (2=20-39% damage) | 1 (1=0-19% damage) | 1 (1=0-19% damage) | 4 (4=60-79% damage) | 2 (2=20-39% damage) | 4 (4=60-79% damage) |
| Cn1ncc(-c2cc3cccnc3nc2C(F)(F)F)c(O)c1=O [Compound 1.039] | 5 (5=80-100% damage) | 5 (5=80-100% damage) | 5 (5=80-100% damage) | 4 (4=60-79% damage) | 5 (5=80-100% damage) | 5 (5=80-100% damage) | 2 (2=20-39% damage) | 4 (4=60-79% damage) | 5 (5=80-100% damage) | 5 (5=80-100% damage) | 3 (3=40-59% damage) | 5 (5=80-100% damage) |
